Experimental data taken from paper PMC9265050, “Inhibition of RNA Binding in SND1 Increases the Levels of miR-1-3p and Sensitizes Cancer Cells to Navitoclax” (Cancers, 2022).

T1: SN1-SN2 (16-339) (Homo sapiens, UniProt Q7KZF4)
T1 construct: gene SND1; SN1-SN2 domain fragment, residues 16-339; N-terminal GST tag cut with TEV protease; E. coli Rosetta 2 (DE3)
T1 sequence (Q7KZF4 16-339): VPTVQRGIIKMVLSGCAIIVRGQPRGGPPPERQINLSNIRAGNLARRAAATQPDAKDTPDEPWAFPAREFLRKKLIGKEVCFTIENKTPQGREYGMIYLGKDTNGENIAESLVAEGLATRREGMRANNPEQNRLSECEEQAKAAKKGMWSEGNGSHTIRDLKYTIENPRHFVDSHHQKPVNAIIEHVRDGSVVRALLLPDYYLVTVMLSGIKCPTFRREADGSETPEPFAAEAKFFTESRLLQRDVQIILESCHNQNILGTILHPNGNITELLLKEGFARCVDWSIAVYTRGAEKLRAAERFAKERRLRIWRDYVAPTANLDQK

T2: SN3-SN4-TSN (340-888) (Homo sapiens, UniProt Q7KZF4)
T2 construct: gene SND1; SN3-SN4-TSN domain fragment, residues 340-888; N-terminal GST tag cut with TEV protease; E. coli Rosetta 2 (DE3)
T2 sequence (Q7KZF4 340-888): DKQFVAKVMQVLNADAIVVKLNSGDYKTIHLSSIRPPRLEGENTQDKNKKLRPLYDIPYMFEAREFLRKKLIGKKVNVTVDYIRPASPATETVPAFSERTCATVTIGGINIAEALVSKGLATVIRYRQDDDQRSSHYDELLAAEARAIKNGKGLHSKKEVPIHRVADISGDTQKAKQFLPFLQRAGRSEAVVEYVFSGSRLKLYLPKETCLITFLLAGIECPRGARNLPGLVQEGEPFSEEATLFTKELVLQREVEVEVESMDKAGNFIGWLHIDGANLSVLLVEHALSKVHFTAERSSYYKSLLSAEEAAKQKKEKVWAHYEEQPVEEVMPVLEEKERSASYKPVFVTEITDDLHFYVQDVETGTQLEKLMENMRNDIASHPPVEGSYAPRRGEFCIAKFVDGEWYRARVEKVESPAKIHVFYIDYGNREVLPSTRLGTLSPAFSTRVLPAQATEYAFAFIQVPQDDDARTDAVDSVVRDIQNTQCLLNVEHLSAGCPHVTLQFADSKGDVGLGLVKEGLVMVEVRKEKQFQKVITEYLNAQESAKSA


Assays:
SN1-SN2 (16-339) = target: T1, SN1-SN2 (16-339); test: isothermal titration calorimetry, one-site model; type: binding
Text: isothermal titration calorimetry, one-site model on SN1-SN2 (16-339)

SN3-SN4-TSN (340-888) = target: T2, SN3-SN4-TSN (340-888); test: isothermal titration calorimetry, one-site model; type: binding
Text: isothermal titration calorimetry, one-site model on SN3-SN4-TSN (340-888)

SND1 full-length = SND1 full-length (UniProt Q7KZF4 1-910); test: fluorescence polarization; high affinity, Kd only in figure; inhibited by suramin, not by navitoclax; FP: 20 mM HEPES pH 7.5, 100 mM NaCl, 3 nM labelled RNA, 25 C; EMSA: same buffer with 5 mM EGTA or 5 mM CaCl2, room temperature 1 or 4 h, 20% PAGE 1xTBE 4 C; conditions: protein: recombinant; tags: GST tag removed by TEV; label: 5' 6-FAM; single strand
Chain of SND1 full-length (Q7KZF4 whole entry): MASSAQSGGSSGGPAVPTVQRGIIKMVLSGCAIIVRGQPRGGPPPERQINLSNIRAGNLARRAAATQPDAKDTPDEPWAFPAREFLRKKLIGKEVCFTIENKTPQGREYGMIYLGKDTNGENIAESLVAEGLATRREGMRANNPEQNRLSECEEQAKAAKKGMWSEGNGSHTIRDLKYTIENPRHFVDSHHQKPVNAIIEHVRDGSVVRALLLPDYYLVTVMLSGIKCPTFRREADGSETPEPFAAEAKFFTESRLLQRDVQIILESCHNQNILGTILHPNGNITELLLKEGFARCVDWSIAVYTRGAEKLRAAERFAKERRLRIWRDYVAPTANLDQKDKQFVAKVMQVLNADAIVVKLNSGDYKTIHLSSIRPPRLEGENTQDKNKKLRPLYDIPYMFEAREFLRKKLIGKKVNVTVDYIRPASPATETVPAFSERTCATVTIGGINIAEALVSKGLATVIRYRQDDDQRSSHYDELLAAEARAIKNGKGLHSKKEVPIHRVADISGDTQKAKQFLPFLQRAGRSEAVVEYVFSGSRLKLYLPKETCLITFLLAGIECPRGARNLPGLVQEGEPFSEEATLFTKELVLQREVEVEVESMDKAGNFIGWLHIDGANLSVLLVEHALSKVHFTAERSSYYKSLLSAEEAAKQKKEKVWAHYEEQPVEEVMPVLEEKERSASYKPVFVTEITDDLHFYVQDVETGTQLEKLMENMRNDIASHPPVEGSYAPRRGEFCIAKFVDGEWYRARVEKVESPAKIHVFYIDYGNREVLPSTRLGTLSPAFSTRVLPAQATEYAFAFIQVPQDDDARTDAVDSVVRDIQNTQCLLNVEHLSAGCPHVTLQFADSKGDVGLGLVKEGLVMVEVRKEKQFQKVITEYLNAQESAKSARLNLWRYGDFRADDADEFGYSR

Kd (SN1-SN2 (16-339)) | Kd (SN3-SN4-TSN (340-888)) | Molecule | binding result (SND1 full-length)
12.1 µM | 5.59 µM | Cc1ccc(C(=O)Nc2ccc(S(=O)(=O)O)c3cc(S(=O)(=O)O)cc(S(=O)(=O)O)c23)cc1NC(=O)c1cccc(NC(=O)Nc2cccc(C(=O)Nc3cc(C(=O)Nc4ccc(S(=O)(=O)O)c5cc(S(=O)(=O)O)cc(S(=O)(=O)O)c45)ccc3C)c2)c1 [Suramin] | 
 |  | UGGAAUGUAAAGAAGUAUGUAU (ssRNA) [miR-1-3p FP tracer] | binds
